Assay results published in patent US20260284003A1, “COMPOSITIONS AND METHOD FOR MANAGEMENT OF PAIN AND ALLERGY” (priority 2023, published 2026).

What was measured:
[1] = system: Human epidermal keratinocyte cells (HaCaT); experiment: Inhibition of intracellular calcium (H2O2 stimulated, Fluo-8AM); assay type: cell-based; settings: samples pre-treated 2 hours, 10 mM H2O2 30 mins, FIG. 1A-1D, combination ratio 1:1:0.3
Description: Various environmental stimuli or neurotransmitters often cause changes in intracellular calcium concentration in the skin. Keratinocytes, primary cell type found in the outermost layer of the skin. Epidermal keratinocytes express functional sensory receptors, such as TRPV1, TRPV3, and TRPV4. Pain stimulus increases intracellular calcium through TRPV channels. Hydrogen peroxide mediated calcium stimulation was tested. Human epidermal keratinocyte cells (HaCaT) (5×10^4) were seeded in 96 black well plate for overnight. Samples were Pre-treated for 2 hours in 1% DMEM. Cells were stimulated with 10 mM H2O2 for 30 mins, and Fluo-8AM dye was added (HBBS buffer) for 1 hr. After incubation, cells were washed with PBS twice and the fluorescence was measured at the Ex/Em of 485/520 nm.

[2] = system: Mouse mast cells P815; experiment: Inhibition of histamine release from C48/80 activated mast cells; assay type: cell-based; settings: P815, 80 μg/ml C48/80, 30 min; FIG. 4A-4D
Description: Reaction was terminated by placing the cells on ice for 10 mins and centrifuged for 5 minutes at 2400 rpm. 100 μL of cell supernatant was mixed with 50 μL of 4N NaOH and 10 μL of O-Phthaldialdehyde (OPT, 1 mg·mL-1 in methanol, Sigma). By incubation at room temperature for 10 min, 50 μL of 1N HCl was added to stop the reaction. The fluorescence was measured at Ex/Em of 390/460 nm using a microplate reader (FLOUSTAR).

[3] = system: TRPV1; experiment: TRPV1 expression in spinal tissue lysate (Western blotting); assay type: in vivo, C57BL/6 mice; settings: normalized to GAPDH, cisplatin = 1, control 0.3, BCP 10 mg, PEA 5 mg, BPE 10 mg, BPB 15 mg, Ibuprofen 30 mg, oral 21 days
Description: (§1) In the current study, TRPV1 and COX-2 expression was assessed in the spinal tissue lysate of the animals, using Western blotting. Briefly, proteins from the spinal tissue were separated in a 10% SDS-PAGE and transferred to PVDF membrane. The TRPV1 and COX-2 expressions were probed using specific monoclonal antibodies (ABclonal, Dusseldorf, Germany). GAPDH was used as housekeeping gene control. The expression of TRPV1 and COX-2 were normalized to that of GAPDH, and fold change was calculated w.r.t cisplatin group.

[4] = system: COX-2; experiment: COX-2 expression in spinal tissue lysate (Western blotting); assay type: in vivo, C57BL/6 mice; settings: normalized to GAPDH, cisplatin = 1, control 0.7, BCP 10 mg, PEA 5 mg, BPE 10 mg, BPB 15 mg, Ibuprofen 30 mg, oral 21 days
Description: as §1

[5] = system: Cisplatin induced peripheral neuropathy animal models; experiment: Tail-flick test, cisplatin induced peripheral neuropathy; assay type: in vivo, C57BL/6 mice; settings: tail withdrawal latency; BCP 10 mg, PEA 5 mg, BPE 10 mg, BPB 15 mg, Ibuprofen 30 mg
Description: This is a test of acute nociception in which a high-intensity thermal stimulus is directed to the tail of a mouse or a rat. The time from onset of stimulation to a rapid flick/withdrawal of the tail from heat source is recorded. Thermal (radiant heat) sensation of animal tail part was assessed by observation of tail flick response as per D'Aemour and Smith method with minor modifications (Hargreaves et al. A new and sensitive method for measuring thermal nociception in cutaneous hyperalgesia. Pain 32 (1988) 77-88). The one-centimeter distance from the tail terminal region was located on the slit of the plantar device. Thermal sensitivity of mice tail was recorded as tail withdrawal latency. Brisk withdrawal of tail from the plantar device was considered as a progression of neuropathic pain. Cut-off stimuli, i.e., 15 s was maintained to avoid potential tissue damage. Mice were tested after 24 h of treatment injections for the drug-response evaluation.

[6] = system: Cisplatin induced peripheral neuropathy animal models; experiment: Hot plate test, cisplatin induced peripheral neuropathy; assay type: in vivo, C57BL/6 mice; settings: reaction latency, 52° C.; BCP 10 mg, PEA 5 mg, BPE 10 mg, BPB 15 mg, Ibuprofen 30 mg
Description: Animals are placed on the hot plate one at a time. Latency to respond to the heat stimulus is measured by the amount of time it takes for the animal to lick one of its paws. Animals were placed on a hot-plate apparatus. In order to measure thermal pain, the temperature of the hot plate surface was set to 52° C. The reaction latency as well as the time between when the animals were placed and the onset of paw-licking or jumping behaviors were measured in seconds(s). To minimize tissue damage, a cut-off time of 40 s was adopted (Moureq et al. Alleviation of cisplatin-induced neuropathic pain, neuronal apoptosis, and systemic inflammation in mice by rapamycin., Frontiers in Aging Neuroscience., 14, 2022).

[7] = system: Ovalbumin Induced Respiratory Allergy; experiment: Organ weight determination, ovalbumin induced respiratory allergy; assay type: in vivo, BALB/c mice; settings: for organ weight (in words): compared OVA control, FIG. 10, Table 5; for Organ weight, Spleen / Organ weight, Lungs: mean, BCP 10 mg/kg, PEA 3 mg/kg, BPE 10 mg/kg, BPB 30 mg/kg oral 5 days; for Organ weight, Spleen: control 0.26, OVA 0.80; for Organ weight, Lungs: control 0.65, OVA 1.08
Source text: It is widely known that lungs and spleen weight increase during allergy.

[8] = system: inducible nitric oxide; experiment: Inhibition of inducible nitric oxide (Griess reaction); settings: macrophages, nitrite in cell supernatant; FIG. 2A-2C
Description: (§2) Mouse macrophage cell line (RAW264.7) was purchased from National Center for Cell Science (NCCS, Pune, India) and maintained as a monolayer culture in Dulbecco's modified minimal essential medium (DMEM, Life Technologies, CA, USA) supplemented with 10% (v/v) fetal bovine serum (FBS; GIBCO/Invitrogen, Carlsbad, CA) at 37° C. in a humidified 5% CO2 incubator.
The Nitrite estimation was carried out using the Griess reaction. To the 50 μL of cell supernatant, Griess reagent I (50 μL) and Griess reagent II (50 μL) were added and incubated for 10 min at room temperature and absorbance were read at 540 nm using Microplate reader.

[9] = system: IL-6; experiment: Inhibition of IL-6 in LPS induced RAW 264.7 macrophages (ELISA); settings: RAW 264.7, LPS 100 ng/mL; FIG. 3A-3D
Description: as §2
RAW 264.7 (5×10^5 cells/well) macrophage cells were induced with LPS (100 ng/mL) along with or without different concentrations of Samples. The supernatants were used for IL6 estimation using ELISA kits as per the manufacturer's instruction (R&D Systems, Minneapolis, Minnesota, USA).

[10] = system: Ovalbumin Induced Respiratory Allergy; experiment: Evaluation of nasal symptoms, ovalbumin induced respiratory allergy; settings: BCP 10, PEA 3, BPE 10, BPB 30 mg/kg; for Nasal Redness Score: score 0—normal, 1—faint, 2—medium, 3—dark
Description: BALB/c mice (20-30 g body weight) were housed under standard laboratory conditions (temperature 23.5° C., humidity=58-64%), with 12 h light and 12 h dark cycle, fed with normal diet and water ad libitum. […] The number of animals used in each group is 6.
(§3) Control animals were administered with 2% Gum acacia in PBS. All the animals except in Group I were actively sensitized by an intraperitoneal (i.p.) injection of OVA (20 μg/kg body weight) and Aluminum hydroxide (2 mg/kg body weight) in PBS on 0 and 14th day and were challenged with 1% OVA in PBS on 21st, 22nd, and 23rd using Nebulizer for 1 hour. The treatment drugs and standard drug were administered orally for 5 days (18th to 23rd day).
On day 21, 22 and 23 nasal symptoms were evaluated within a 10-minute period after the OVA challenge. […] Sneezing is characterized by an explosive expiration just after a deep inspiration and nose rubbing is characterized by an external perinasal scratch with either one or both forelimbs of animal. Another parameter that was evaluated was redness of the nose (FIG. 13) was by observing the intensity in redness of nostrils and scoring them as the following: 0—normal, 1—faint, 2—medium, and 3—dark.

[11] = system: tumor necrosis factor-α (TNF-α); experiment: TNF-α in spinal fluids, cisplatin induced peripheral neuropathy (ELISA); settings: cisplatin mice, oral 21 days, FIG. 5
Description: (§4) As an illustrative example to evaluate the effect of the composition on reducing pain, in-vivo experiments were carried out in Cisplatin induced peripheral neuropathy animal models.
(§5) In the present study, these were estimated in the spinal fluids of the animals using ELISA kits as per the manufacturer's instruction (R&D Systems, Minneapolis, Minnesota, USA).

[12] = system: Interleukin-1β (IL-1β); experiment: IL-1β in spinal fluids, cisplatin induced peripheral neuropathy (ELISA); settings: cisplatin mice, oral 21 days, FIG. 6
Description: as §4, §5

[13] = system: Ovalbumin Induced Respiratory Allergy; experiment: Bronchoalveolar lavage fluid (BALF) cell count, ovalbumin induced respiratory allergy; settings: BCP 10, PEA 3, BPE 10, BPB 30 mg/kg; for Differential Count, PMN - E / Differential Count, PMN - N / Differential Count, Lymphocytes / Differential Count, Macrophages: BALF; for Differential Count, PMN - E: eosinophil, control 0.50, OVA 1.67; for Differential Count, PMN - N: neutrophil, control 1.00, OVA 5.33; for Differential Count, Lymphocytes: control 1.83, OVA 12.00; for Differential Count, Macrophages: control 3.33, OVA 25.17; for Cellular Count (total cell count of BALF): control 6.93, OVA 44.17
Description: BALB/c mice (20-30 g body weight) were housed under standard laboratory conditions (temperature 23.5° C., humidity=58-64%), with 12 h light and 12 h dark cycle, fed with normal diet and water ad libitum.
as §3
On day 25, 48 h after final OVA challenge (saline challenge for normal control group), the animals were anesthetized for collection of blood and Bronchoalveolar Lavage (BAL) fluid for biochemical evaluation.
On the day of sacrifice mice were anesthetized, the lungs were gently lavaged three times via the tracheal tube with a volume of 0.7 ml phosphate buffered saline (PBS). BALF was immediately centrifuged at 1500 rpm for 5 min, and the collected supernatant was stored at −70° C. until further analysis. The cell pellet was analysed to determine the total cell count of BALF (Table 9, FIG. 14) and the count of Macrophages, neutrophil, eosinophil, and lymphocyte (Table 10, FIG. 15) counts using a hematology analyzer in BALF fluids.

[14] = day 21, 10-minute period after OVA challenge, OVA 6.00
[15] = day 21, 10-minute period after OVA challenge, OVA 88.67
[16] = day 22, 10-minute period after OVA challenge, OVA 5.50
[17] = day 22, 10-minute period after OVA challenge, OVA 82.17
[18] = day 23, 10-minute period after OVA challenge, OVA 4.00
[19] = day 23, 10-minute period after OVA challenge, OVA 83.17

Structure (SMILES) | inhibition of intracellular calcium levels [1] | inhibition of histamine release from mast cells [2] | TRPV1 expression (fold change w.r.t cisplatin group) [3] | Cox 2 expression (fold change w.r.t cisplatin group) [4] | Tail Flick test Mean Diff., Cisplatin vs. treatment (Tukey's multiple comparisons test) [5] | Hot plate test Mean Diff., Cisplatin vs. treatment (Tukey's multiple comparisons test) [6] | organ weight (in words) [7] | Organ weight, Spleen [7] | Organ weight, Lungs [7] | inhibition of IL6 induced by LPS [9] | Number of Sneezing [10, 14] | Nose rubbing [10, 15] | Number of Sneezing [10, 16] | Nose rubbing [10, 17] | Nasal Redness Score ([10]; day 22, OVA 2.17) | Number of Sneezing [10, 18] | Nose rubbing [10, 19] | Nasal Redness Score ([10]; day 23, OVA 1.17) | Differential Count, PMN - E [13] | Differential Count, PMN - N [13] | further results
C=C1CC/C=C(\C)CC[C@@H]2[C@@H]1CC2(C)C [BCP, β-Caryophyllene] | showed inhibition of intracellular calcium levels | dose dependent inhibition of histamine release from mast cells | 0.1 | 0.8 | −3.125 | −12.13 | showed decrease in organ weight | 0.51 | 0.76 | lower activity | 3.33 | 52.83 | 2.67 | 51.33 | 0.67 | 1.50 | 52.83 | 0.17 | 1.50 | 1.50 | inhibition of nitric oxide levels [8]: showed inhibition of nitric oxide levels; inhibition of tumor necrosis factor-α (TNF-α) [11]: showed inhibition; inhibition of Interleukin-1β (IL-1β) [12]: showed inhibition; Differential Count, Lymphocytes [13]: 4.17; Differential Count, Macrophages [13]: 11.00; Cellular Count (total cell count of BALF) [13]: 18.17
CCCCCCCCCCCCCCCC(=O)NCCO [PEA, Palmitoylethanolamide] | showed inhibition of intracellular calcium levels | lower activity | 2.8 | 0.3 | −4.167 | −5.958 | showed decrease in organ weight | 0.50 | 0.83 | dose dependent inhibition of IL6 induced by LPS | 2.60 | 66.40 | 2.80 | 58.40 | 1.00 | 3.00 | 66.40 | 0.80 | 1.20 | 1.80 | Differential Count, Lymphocytes [13]: 2.80; Differential Count, Macrophages [13]: 5.00; Cellular Count (total cell count of BALF) [13]: 10.80
